Experiments:
Format in all cases: cell-based
Trire2_104072 [1] = target: T1, Trire2_104072 (Trichoderma reesei, UniProt Q1EG32, H388P, form not given); assay: inhibition of […]-L-arabinose uptake, yeast cells; conditions: 833 µM; fivefold excess over 0.167 mM labelled L-arabinose, pH 6.5, 28 °C
T1 construct: gene xlt1; full-length RUT-C30 version, yeast codon-optimised synthetic gene; no tag mentioned; P388H version XLT1 from plasmid B1687

Trire2_104072 [2] = target: T2, Trire2_104072 (Trichoderma reesei, UniProt Q1EG32); assay: inhibition of […]-L-arabinose uptake, yeast cells; conditions: fivefold excess over 0.167 mM labelled L-arabinose, pH 6.5, 28 °C
T2 construct: gene xlt1; full-length RUT-C30 version, yeast codon-optimised synthetic gene; no tag mentioned; P388H version XLT1 from plasmid B1687

Trire2_104072 [3] = target: T1, Trire2_104072; assay: two-electrode voltage clamp, sugar-induced current, Xenopus oocytes; conditions: pH 5.5, -50 mV, sodium-free ND-96 buffer; proton symport
A. thaliana STP7 = target: T3, A. thaliana STP7 (Arabidopsis thaliana, UniProt O04249); assay: […]-L-arabinose uptake, yeast cells; conditions: 5 mM L-arabinose, sodium citrate pH 4.5, 28 °C; labelled compound
T3 construct: no tag mentioned
T3 sequence (O04249 1-513): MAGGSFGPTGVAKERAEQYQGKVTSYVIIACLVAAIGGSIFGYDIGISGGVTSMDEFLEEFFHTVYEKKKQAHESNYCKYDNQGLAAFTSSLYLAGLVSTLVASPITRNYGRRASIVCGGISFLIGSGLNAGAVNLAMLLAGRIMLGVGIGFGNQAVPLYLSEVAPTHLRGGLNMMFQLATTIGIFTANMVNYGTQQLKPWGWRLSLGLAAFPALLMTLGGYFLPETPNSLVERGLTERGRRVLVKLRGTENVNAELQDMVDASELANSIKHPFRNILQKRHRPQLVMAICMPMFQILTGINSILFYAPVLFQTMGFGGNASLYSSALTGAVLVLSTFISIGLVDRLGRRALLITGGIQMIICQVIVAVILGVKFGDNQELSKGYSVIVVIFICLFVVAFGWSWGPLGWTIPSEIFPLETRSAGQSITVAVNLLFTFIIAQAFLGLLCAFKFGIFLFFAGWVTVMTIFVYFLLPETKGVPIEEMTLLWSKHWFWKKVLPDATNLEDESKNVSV

P. chrysogenum AraT = target: T4, P. chrysogenum AraT (Penicillium rubens, UniProt B6HE12); assay: […]-L-arabinose uptake, yeast cells; conditions: 0.167 mM L-arabinose at pH 6.5 and 5 mM at pH 4.5; 28 °C; labelled compound
T4 construct: gene Pc20g01790; no tag mentioned
T4 sequence (B6HE12 1-511): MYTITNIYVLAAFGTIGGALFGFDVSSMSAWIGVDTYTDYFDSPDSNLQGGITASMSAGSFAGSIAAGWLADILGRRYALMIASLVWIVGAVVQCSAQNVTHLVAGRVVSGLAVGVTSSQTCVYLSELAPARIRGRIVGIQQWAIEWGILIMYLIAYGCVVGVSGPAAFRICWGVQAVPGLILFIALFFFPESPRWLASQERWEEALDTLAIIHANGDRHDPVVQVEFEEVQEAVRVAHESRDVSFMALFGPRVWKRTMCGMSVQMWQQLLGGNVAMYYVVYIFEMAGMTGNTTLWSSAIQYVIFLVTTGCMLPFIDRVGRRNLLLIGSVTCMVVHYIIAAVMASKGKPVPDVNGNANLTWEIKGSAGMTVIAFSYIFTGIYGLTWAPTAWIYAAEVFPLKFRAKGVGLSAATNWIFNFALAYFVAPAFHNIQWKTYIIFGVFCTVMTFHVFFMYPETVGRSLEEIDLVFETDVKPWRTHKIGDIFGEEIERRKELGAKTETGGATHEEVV

T1 sequence (Q1EG32 entry or part of it H388P, form open): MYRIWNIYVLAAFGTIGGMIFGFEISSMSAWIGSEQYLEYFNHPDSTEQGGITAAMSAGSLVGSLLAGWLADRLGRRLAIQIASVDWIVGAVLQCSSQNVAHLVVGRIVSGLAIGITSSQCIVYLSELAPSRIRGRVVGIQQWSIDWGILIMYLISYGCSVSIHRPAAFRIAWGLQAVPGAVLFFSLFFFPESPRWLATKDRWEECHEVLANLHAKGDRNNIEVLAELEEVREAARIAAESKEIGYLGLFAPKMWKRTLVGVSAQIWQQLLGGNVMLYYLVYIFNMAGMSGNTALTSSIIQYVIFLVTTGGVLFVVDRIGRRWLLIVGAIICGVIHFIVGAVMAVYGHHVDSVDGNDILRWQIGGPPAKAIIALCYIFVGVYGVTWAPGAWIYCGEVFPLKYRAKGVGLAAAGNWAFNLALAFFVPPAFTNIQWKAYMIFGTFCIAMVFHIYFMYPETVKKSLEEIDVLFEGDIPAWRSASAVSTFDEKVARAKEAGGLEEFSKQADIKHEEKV
T2 sequence (Q1EG32 entry or part of it): as the sequence (Q1EG32 entry or part of it H388P, form open) above, with P388H counted along it

Structure (SMILES)	Inhibition of L-arabinose uptake by competing sugar (glucose in 22.1, xylose in 22.2) (Trire2_104072 [1])	% inhibition at 0.833 mM (Trire2_104072 [2])	Km (Trire2_104072 [3])	14C-L-arabinose uptake, yeast cells (A. thaliana STP7)	14C-L-arabinose uptake, yeast cells (P. chrysogenum AraT)
OC1OC[C@@H](O)[C@H](O)[C@H]1O (stereo partly drawn) [D-xylose]	10.9±6.3%	13.4±7.9%	9.16 ± 3.35 mM		
OC[C@H]1OC(O)[C@H](O)[C@@H](O)[C@@H]1O (stereo partly drawn) [D-glucose]	0±8.2%	4.5±17.6%			
OC1OC[C@H](O)[C@H](O)[C@H]1O (stereo partly drawn) [L-arabinose]			0.207 ± 0.079 mM	The strain expressing A. thaliana STP7 had also significantly higher uptake	XLT1 or P. chrysogenum AraT had significantly higher L-arabinose uptake rates than the control strain

From PMC8425032, “Functional characterization of a highly specific L-arabinose transporter from Trichoderma reesei” (Microbial Cell Factories, 2021)
